The record followed here is ChEMBL document CHEMBL1128467, “Novel, potent, and selective 5-HT3 receptor antagonists based on the arylpiperazine skeleton: synthesis, structure, biological activity, and comparative molecular field analysis studies” (J Med Chem, 1995).

One may read the pKi as −log10 of the Ki, conventionally taken in molar units.

In assay [1] the target is T1, 5-hydroxytryptamine receptor 2A (Rattus norvegicus, UniProt P14842). The following applies: for pKi: read-out: Ki.
In assay [2] the target is T2, 5-hydroxytryptamine receptor 1A (Rattus norvegicus, UniProt P19327).
T2 sequence (P19327 whole entry): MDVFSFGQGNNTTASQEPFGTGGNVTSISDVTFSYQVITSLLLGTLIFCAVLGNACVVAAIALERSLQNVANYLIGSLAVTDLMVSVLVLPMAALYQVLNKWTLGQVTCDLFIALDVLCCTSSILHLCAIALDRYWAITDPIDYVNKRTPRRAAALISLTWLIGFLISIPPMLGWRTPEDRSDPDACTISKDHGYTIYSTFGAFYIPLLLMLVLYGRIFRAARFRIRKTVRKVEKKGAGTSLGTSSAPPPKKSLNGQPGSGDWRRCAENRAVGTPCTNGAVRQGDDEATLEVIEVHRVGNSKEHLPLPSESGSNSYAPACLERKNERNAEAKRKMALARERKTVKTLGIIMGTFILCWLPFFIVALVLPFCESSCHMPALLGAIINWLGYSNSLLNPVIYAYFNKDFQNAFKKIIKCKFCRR
Format: tissue-based, Hippocampus.

The target of assay [3] is T3, 5-hydroxytryptamine receptor 1B (Rattus norvegicus, UniProt P28564). In kind it is tissue-based, Striatum.
T3 sequence (P28564 whole entry): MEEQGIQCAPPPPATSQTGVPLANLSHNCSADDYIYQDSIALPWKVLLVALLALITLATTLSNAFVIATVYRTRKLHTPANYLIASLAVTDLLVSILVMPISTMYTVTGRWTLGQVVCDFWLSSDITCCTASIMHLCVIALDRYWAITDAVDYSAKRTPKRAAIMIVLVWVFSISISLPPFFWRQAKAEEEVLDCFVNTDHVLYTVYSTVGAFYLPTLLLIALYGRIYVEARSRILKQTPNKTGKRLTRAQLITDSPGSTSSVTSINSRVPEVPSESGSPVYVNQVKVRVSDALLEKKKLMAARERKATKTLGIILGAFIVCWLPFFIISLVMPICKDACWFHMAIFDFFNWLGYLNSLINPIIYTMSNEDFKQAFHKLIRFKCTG
Assay [4] has as its target T4, Sodium-dependent serotonin transporter (Rattus norvegicus, UniProt P31652).
Assay [5] has as its system 5-hydroxytryptamine receptor 2C (Sus scrofa).
Assay [6] deals with T5, Serotonin 3 (5-HT3) receptor (Rattus norvegicus, UniProt P35563+Q9JJ16).
T5 sequence (P35563 whole entry): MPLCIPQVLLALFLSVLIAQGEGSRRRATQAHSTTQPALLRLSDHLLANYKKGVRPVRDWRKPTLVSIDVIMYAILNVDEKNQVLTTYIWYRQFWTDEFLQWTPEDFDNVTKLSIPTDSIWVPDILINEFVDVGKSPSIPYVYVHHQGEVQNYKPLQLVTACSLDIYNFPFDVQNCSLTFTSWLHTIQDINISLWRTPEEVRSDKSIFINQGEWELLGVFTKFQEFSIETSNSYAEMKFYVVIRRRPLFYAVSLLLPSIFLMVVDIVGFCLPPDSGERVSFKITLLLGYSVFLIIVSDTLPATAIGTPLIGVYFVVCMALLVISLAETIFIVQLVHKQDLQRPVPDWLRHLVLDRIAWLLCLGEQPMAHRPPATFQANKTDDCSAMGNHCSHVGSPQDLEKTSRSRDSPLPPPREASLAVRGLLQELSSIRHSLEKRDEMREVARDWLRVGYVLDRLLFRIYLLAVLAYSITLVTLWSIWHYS
T5 sequence (Q9JJ16 whole entry): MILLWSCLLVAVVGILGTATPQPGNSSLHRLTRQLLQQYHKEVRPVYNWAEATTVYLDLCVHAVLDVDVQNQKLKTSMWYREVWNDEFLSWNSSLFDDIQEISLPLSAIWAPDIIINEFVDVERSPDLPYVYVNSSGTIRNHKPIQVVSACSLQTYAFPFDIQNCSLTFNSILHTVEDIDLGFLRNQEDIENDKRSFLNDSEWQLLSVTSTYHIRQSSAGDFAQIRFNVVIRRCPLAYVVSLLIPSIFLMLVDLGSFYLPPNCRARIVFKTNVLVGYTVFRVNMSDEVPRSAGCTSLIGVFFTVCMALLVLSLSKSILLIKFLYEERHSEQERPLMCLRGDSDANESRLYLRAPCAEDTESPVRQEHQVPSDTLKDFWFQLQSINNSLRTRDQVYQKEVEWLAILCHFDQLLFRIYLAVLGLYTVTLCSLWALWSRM
The experiment in a line: Binding affinity for 5-hydroxytryptamine 3 receptor from rat cortex using [3H]BRL-43694 as radioligand.

Assay [7] addresses T6, 5-hydroxytryptamine receptor 4 (Cavia porcellus, UniProt O70528). The experiment in a line: The compound was tested for their binding affinity towards 5-hydroxytryptamine 4 receptor from guinea pig striatum using [3H]GR-113808 as radioligand. The conditions noted are these: read-out: Ki.
Assay [8] addresses 5-hydroxytryptamine receptor 2C (Sus scrofa). Put plainly: The compound was tested for their binding affinity towards 5-hydroxytryptamine 2C receptor.
The target of assay [9] is T4, Sodium-dependent serotonin transporter. Put plainly: Effect of compound on Serotonin transporter uptake from rat cortex using [3H]citalopram as radioligand.
Assay [10] has the same target. Put plainly: Effect of compound on Serotonin transporter uptake from rat cortex using [3H]citalopram as radioligand; Nonactive at 10 uM.
The target in assay [11] is T3, 5-hydroxytryptamine receptor 1B. Put plainly: The compound was tested for their binding affinity towards 5-hydroxytryptamine 1B receptor from rat striatum using [3H]5-HT as radioligand.
The target of assay [12] is T6, 5-hydroxytryptamine receptor 4.
For assay [13] the target is unchanged. Put plainly: Displacement of [3H]-GR113808 from 5-HT4 receptor of guinea pig striatum. In general terms: Displacement assays read how much labelled ligand stays bound in the presence of the test substance.
In assay [14] the target is T3, 5-hydroxytryptamine receptor 1B. The experiment in a line: The compound was tested for their binding affinity towards 5-hydroxytryptamine 1B receptor from rat striatum using [3H]5-HT as radioligand; Nonactive at 10 uM.
In assay [15] the target is T5, Serotonin 3 (5-HT3) receptor. Put plainly: The compound was tested for their binding affinity towards 5-hydroxytryptamine 3 receptor; Nonactive at 10 uM. Format: protein-complex assay.
The target in assay [16] is T1, 5-hydroxytryptamine receptor 2A. Put plainly: The compound was tested for its binding affinity towards 5-hydroxytryptamine 2A receptor from rat cortex using [3H]ketanserin as radioligand.; Nonactive at 10 uM.
In assay [17] the target is T6, 5-hydroxytryptamine receptor 4. Put plainly: The compound was tested for their binding affinity towards 5-hydroxytryptamine 4 receptor from guinea pig striatum using [3H]GR-113808 as radioligand; Nonactive at 10 uM.
Assay [18] has as its target T5, Serotonin 3 (5-HT3) receptor. Put plainly: The compound was tested for its binding affinity towards 5-hydroxytryptamine 3 receptor from rat cortex using [3H]BRL-43694 as radioligand; NA means Not active.

pKi: −log10 of the molar value.

T1 sequence (P14842 whole entry): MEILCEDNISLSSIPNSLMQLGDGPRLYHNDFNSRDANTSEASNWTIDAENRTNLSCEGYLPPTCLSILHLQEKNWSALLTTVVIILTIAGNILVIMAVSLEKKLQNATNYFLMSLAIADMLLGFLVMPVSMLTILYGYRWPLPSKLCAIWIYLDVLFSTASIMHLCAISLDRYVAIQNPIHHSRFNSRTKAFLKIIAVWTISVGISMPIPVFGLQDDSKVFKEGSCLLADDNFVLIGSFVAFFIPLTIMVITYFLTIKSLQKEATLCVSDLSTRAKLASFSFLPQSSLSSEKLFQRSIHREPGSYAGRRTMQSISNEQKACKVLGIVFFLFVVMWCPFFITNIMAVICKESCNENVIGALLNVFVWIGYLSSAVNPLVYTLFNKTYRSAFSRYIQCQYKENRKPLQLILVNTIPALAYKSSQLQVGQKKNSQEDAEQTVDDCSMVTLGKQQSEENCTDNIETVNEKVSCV
T6 sequence (O70528 whole entry): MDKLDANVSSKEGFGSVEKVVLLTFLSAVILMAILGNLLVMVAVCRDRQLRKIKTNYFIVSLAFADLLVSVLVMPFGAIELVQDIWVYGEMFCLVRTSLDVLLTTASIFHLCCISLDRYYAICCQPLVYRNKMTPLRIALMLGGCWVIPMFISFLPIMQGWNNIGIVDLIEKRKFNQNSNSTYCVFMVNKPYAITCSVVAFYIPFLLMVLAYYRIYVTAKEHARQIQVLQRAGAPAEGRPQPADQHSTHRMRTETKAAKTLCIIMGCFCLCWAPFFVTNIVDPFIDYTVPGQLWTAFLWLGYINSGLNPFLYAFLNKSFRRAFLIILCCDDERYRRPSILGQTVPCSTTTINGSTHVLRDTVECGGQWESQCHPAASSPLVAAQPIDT
T4 sequence (P31652 whole entry): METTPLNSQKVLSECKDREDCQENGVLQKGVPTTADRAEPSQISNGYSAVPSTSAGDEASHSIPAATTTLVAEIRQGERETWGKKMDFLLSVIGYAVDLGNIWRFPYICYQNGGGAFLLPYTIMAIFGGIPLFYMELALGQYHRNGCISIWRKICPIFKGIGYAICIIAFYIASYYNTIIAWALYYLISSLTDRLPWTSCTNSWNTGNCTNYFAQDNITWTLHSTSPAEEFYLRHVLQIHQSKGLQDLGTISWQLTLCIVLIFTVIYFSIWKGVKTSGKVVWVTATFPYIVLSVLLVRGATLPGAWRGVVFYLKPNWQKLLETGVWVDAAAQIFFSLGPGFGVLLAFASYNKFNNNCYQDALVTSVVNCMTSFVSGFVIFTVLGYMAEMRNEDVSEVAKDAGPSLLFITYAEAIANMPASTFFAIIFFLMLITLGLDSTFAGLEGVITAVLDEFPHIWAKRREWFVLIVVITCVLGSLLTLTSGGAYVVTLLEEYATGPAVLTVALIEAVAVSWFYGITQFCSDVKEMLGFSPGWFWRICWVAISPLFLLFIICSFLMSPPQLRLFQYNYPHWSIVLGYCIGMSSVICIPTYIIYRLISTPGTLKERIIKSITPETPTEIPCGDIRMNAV

As to `CCN1CCN(c2nc3ccccc3c3c2ccc2ccccc23)CC1`, the pKi in assay [1] is 6.19; in [6], 7.79. In addition, the Ki result in [2], in [3], in assay [4] and in assay [5] was “Not Active” each time.
On to `CN1CCN(c2nc3ccccc3c3c2oc2ccccc23)CC1`, for which the pKi in assay [1] was 6.35; in [7], 5.16; in [6], 7.90. For the same compound, the Ki entry in assay [2], in assay [3], in assay [4] and in [5] was “Not Active” each time.
For the compound `COc1cc2c(N3CCN(C)CC3)nc3ccccc3c2c2ccccc12`, the pKi in assay [1] is 6.62; in [6], 7.38; in [8], 5.64. In addition, the Ki result in [3] is on record as “Not Active”.
Turning to `c1ccc2c(CCC3CCNCC3)c[nH]c2c1` [INDALPINE], in assay [9], the pKi is 8.70.
Consider `c1ccc2c(c1)ccc1c(N3CCNCC3)nc3ccccc3c12`, for which the pKi in assay [1] is 5.96; in [6], 6.89. The Ki entry in assay [2], in [3], in [4] and in [5] was “Not Active” in each case.
As to `CCN1CCN(c2nc3ccccc3c3c2CCc2ccccc2-3)CC1`, the negative logarithm of the Ki (pKi) was 6.22 in assay [1] and 8.10 in assay [6]. Moreover, the Ki entry in assay [2], in assay [3], in assay [4] and in assay [5] was “Not Active” in each case.
For the compound `c1ccc2c(c1)CCc1c(N3CCNCC3)nc3ccccc3c1-2`, the negative logarithm of the Ki (pKi) in assay [9] is 5.59; in assay [1], 6.19; in assay [6], 8.27. The Ki entry in [2], in assay [3] and in [5] was “Not Active” each time.
On to `CCN1CCN(c2nc3ccccc3c3c2oc2ccccc23)CC1`, for which the figures for the pKi in assay [1] and in assay [6] were 6.28 and 7.28, respectively. Besides, the Ki result in assay [2], in assay [3], in [5] and in [10] was “Not Active” in each case.
On to `c1ccc2c(c1)OCCc1c(N3CCNCC3)nc3ccccc3c1-2`, for which the pKi in [9] was 6.48; in assay [1], 5.49; in assay [11], 6.38. The Ki entry in assay [2] is recorded as “Not Active”.
With `CN1CCN(c2nc3ccccc3c3c2COc2ccccc2-3)CC1`, the pKi in assay [1] is 5.85; in assay [6] it was 8.80. The Ki result in assay [2], in assay [3], in assay [12], in [4] and in [5] was “Not Active” in each case.
Consider `CN1CCN(c2nc3ccccc3c3c2CCc2ccccc2-3)CC1`, for which the pKi in assay [1] is 6.40; in assay [13] it was 5.18; in [6], 8.46; in assay [8], 5.14. Besides, the Ki result in assay [2], in [4] and in assay [14] was “Not Active” each time.
Turning to `CN(C)CCSc1nc2ccccc2c2c1ccc1ccccc12`, the pKi in assay [1] was 5.62. For the same compound, the Ki entry in assay [2], in assay [3], in assay [4], in assay [5] and in [15] was “Not Active” each time.
For the compound `c1ccc2c(c1)OCc1c(N3CCNCC3)nc3ccccc3c1-2`, the pKi in [9] is 6.44; in [1], 5.55; in assay [6], 7.94. Further, the Ki result in [2], in [3] and in assay [5] was “Not Active” in each case.
On to `CCN1CCN(c2nc3ccccc3c3c2COc2ccccc2-3)CC1`, for which the results for the pKi in assay [1] and in [6] were 5.96 and 7.27, respectively. Also, the Ki result in assay [2], in assay [3], in assay [4] and in assay [5] was “Not Active” in each case.
For `CCN1CCN(c2nc3ccccc3c3c2cc(OC)c2ccccc23)CC1`, the pKi in [1] was 6.16; in [6], 6.66. In addition, the Ki result in [3] and in assay [5] was “Not Active” in each case.
Consider `COc1cc2c(N3CCNCC3)nc3ccccc3c2c2ccccc12`, for which the negative logarithm of the Ki (pKi) in assay [1] was 5.96; in assay [6], 7.18. The Ki entry in assay [2], in assay [3], in [4] and in assay [5] was “Not Active” each time.
For the compound `CN(C)CCSc1nc2ccccc2c2c1COc1ccccc1-2`, in assay [1], the pKi is 5.74. The Ki entry in assay [2], in [3], in assay [4], in [5] and in assay [15] was “Not Active” in each case.
Regarding `CN(C)CCSc1nc2ccccc2c2c1CCOc1ccccc1-2`, the negative-log Ki (pKi) in assay [1] is 5.55; in assay [11], 5.89; in assay [6], 7.34. Also, the Ki entry in assay [2], in [4] and in [5] was “Not Active” in each case.
As to `CN(C)CCSc1nc2ccccc2c2c1CCc1ccccc1-2`, the pKi in [1] was 6.03. For the same compound, the Ki entry in assay [2], in assay [5], in assay [15] and in assay [14] was “Not Active” each time.
Regarding `CN(C)CCSc1nc2ccccc2c2c1oc1ccccc12`, the Ki result in assay [2], in assay [3], in [4], in assay [16] and in assay [5] was “Not Active” throughout. For the same compound, the pKi in [6] is 6.39.
For the compound `CN1CCN(c2nc3ccccc3c3c2CCOc2ccccc2-3)CC1`, in assay [1], the pKi was 5.62. Further, the Ki entry in assay [2], in [3] and in [17] was “Not Active” in each case.
As for `COc1cc2c(SCCN(C)C)nc3ccccc3c2c2ccccc12`, the Ki entry in [1], in [2], in assay [3], in assay [18], in assay [4] and in [5] was “Not Active” in each case.
For the compound `c1ccc2nc(N3CCNCC3)ccc2c1` [QUIPAZINE], the pKi was 7.37 in assay [9], 6.89 in [1], 6.68 in assay [11] and 8.92 in assay [6]. The Ki entry in assay [12] is listed as “Not Active”.
